Values of other authors as cited in patent publication US20220288059A1, “NANOENCAPSULATED CANNABIDIOL” (Aphios Corporation, priority 2020, published 2022).

Tests used:
rhesus monkeys = conditions: intravenously
dogs = conditions: intravenously
mice [1] = conditions: intravenously
rats = conditions: i.v.
mice [2] = tested on: mice

For C=C(C)[C@@H]1CCC(C)=C[C@H]1c1c(O)cc(CCCCC)cc1O [CBD, cannabidiol], the “LD50 in rhesus monkeys” value (rhesus monkeys) is given as 212 mg/kg, the LD50 in dogs (dogs) is given as 254 mg/kg and the LD50 in mice (mice [1]) is given as 50 mg/kg. The “toxicity relative to Δ9-THC by LD50” value (rats) was “less toxic than Δ9-THC”, the “anti-nociceptive effect, tail-flick test” value (Wistar rats) was “dose-dependent anti-nociceptive effects” and the “inhibition of cue-induced heroin-seeking behaviors” value (mice [2]) was “effectively inhibit cue-induced heroin-seeking behaviors”.
